Test results taken from patent US8288370B2, “Substituted azetidine compounds of formula (I) useful in the treatment of functional gastrointestinal disorders, IBS, and functional dyspepsia” (Albireo AB, priority 2005, dated 2012).
Counter-ions that a name gives are not always drawn.

Assays:
[1] = test system: Human Neurokinin-2 (NK2) Receptor; settings: literature statement; cited from earlier work
human NK1 receptor = target: T1, human NK1 receptor (Homo sapiens, UniProt P25103); assay: FLIPR assay, inhibition of human NK1 receptor activation (intracellular Ca2+ increase); type: cell-based; settings: CHO cells with human NK1 receptor, agonist Substance P; pKB converted from IC50
T1 construct: expressed in transfected cells; cDNA in pRcCMV
T1 sequence (P25103 whole entry): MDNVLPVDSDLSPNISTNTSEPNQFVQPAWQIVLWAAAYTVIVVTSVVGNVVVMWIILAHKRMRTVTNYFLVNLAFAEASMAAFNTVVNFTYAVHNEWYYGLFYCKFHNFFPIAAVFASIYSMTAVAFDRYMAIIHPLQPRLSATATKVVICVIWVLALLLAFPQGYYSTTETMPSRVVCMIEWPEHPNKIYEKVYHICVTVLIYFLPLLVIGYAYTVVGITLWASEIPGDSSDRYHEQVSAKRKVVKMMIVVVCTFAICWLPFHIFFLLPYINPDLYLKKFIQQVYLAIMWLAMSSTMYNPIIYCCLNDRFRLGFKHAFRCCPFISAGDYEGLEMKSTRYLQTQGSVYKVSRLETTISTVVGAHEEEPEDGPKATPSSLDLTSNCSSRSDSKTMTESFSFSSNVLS
Experimental: (§1) Chinese Hamster Ovary (CHO) K1 cells (obtained from ATCC) were stably transfected with the human NK2 receptor (hNK2R cDNA in pRc/CMV, Invitrogen) or the human NK3 receptor (hNK3R in pcDNA 3.1/Hygro (+)/IRES/CD8, Invitrogen vector modified at AstraZeneca EST-Bio UK, Alderley Park). The cells were transfected with the cationic lipid reagent LIPOFECTAMINE™ (Invitrogen) and selection was performed with Geneticin (G418, Invitrogen) at 1 mg/ml for the hNK2R transfected cells and with Hygromycin (Invitrogen) at 500 μg/ml for the hNK3R transfected cells. Single cell clones were collected by aid of Fluorescence Activated Cell Sorter (FACS), tested for functionality in a FLIPR assay (see below), expanded in culture and cryopreserved for future use. CHO cells stably transfected with human NK1 receptors originates from AstraZeneca R&D, Wilmington USA. Human NK1 receptor cDNA (obtained from RNA-PCR from lung tissue) was subcloned into pRcCMV (Invitrogen). Transfection was performed by Calcium Phosphate and selection with 1 mg/ml G418. […]
(§2) The activity of a compound of the invention to inhibit NK1/NK2/NK3 receptor activation measured as NK1/NK2/NK3 receptor mediated increase in intracellular Ca^2+ was assessed by the following procedure: […]

human NK2 receptor = target: T2, human NK2 receptor (Homo sapiens, UniProt P21452); assay: FLIPR assay, inhibition of human NK2 receptor activation (intracellular Ca2+ increase); type: cell-based; settings: CHO cells with human NK2 receptor, agonist NKA; pKB converted from IC50
T2 construct: expressed in transfected cells; hNK2R cDNA in pRc/CMV
T2 sequence (P21452 1-398): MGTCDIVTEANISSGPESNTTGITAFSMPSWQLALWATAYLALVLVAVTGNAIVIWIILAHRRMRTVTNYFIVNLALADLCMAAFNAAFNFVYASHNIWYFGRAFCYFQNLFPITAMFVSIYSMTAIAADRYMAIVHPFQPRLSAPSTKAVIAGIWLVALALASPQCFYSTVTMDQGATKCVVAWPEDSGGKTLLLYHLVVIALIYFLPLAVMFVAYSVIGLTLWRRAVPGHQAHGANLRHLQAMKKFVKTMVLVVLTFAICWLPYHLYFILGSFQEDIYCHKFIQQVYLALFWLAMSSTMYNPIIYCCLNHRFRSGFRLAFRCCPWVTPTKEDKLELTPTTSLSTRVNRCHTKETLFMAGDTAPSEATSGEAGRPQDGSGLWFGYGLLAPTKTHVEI
Experimental: as §1, §2

human NK3 receptor = target: T3, human NK3 receptor (Homo sapiens, UniProt P29371); assay: FLIPR assay, inhibition of human NK3 receptor activation (intracellular Ca2+ increase); type: cell-based; settings: CHO cells with human NK3 receptor, agonist Pro-7-NKB; pKB converted from IC50
T3 construct: expressed in transfected cells; hNK3R in pcDNA 3.1/Hygro (+)/IRES/CD8
T3 sequence (P29371 1-465): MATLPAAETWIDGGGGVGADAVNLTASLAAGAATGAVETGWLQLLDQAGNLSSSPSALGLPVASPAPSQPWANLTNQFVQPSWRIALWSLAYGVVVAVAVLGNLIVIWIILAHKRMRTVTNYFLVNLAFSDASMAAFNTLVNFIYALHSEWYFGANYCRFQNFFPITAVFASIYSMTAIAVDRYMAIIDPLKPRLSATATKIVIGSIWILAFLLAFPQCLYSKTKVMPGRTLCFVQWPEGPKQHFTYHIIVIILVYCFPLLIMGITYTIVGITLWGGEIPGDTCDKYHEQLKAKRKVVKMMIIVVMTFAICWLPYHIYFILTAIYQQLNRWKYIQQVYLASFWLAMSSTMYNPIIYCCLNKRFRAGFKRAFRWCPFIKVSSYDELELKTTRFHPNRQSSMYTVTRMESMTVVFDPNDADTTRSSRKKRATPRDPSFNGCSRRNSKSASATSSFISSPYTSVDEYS
Experimental: as §1, §2

[2] = target: hERG-encoded potassium channel (Homo sapiens, UniProt Q12809); assay: Activity against hERG (planar-array-based voltage clamp, Kiss et al.); type: cell-based
Sequence of hERG-encoded potassium channel (Q12809 whole entry): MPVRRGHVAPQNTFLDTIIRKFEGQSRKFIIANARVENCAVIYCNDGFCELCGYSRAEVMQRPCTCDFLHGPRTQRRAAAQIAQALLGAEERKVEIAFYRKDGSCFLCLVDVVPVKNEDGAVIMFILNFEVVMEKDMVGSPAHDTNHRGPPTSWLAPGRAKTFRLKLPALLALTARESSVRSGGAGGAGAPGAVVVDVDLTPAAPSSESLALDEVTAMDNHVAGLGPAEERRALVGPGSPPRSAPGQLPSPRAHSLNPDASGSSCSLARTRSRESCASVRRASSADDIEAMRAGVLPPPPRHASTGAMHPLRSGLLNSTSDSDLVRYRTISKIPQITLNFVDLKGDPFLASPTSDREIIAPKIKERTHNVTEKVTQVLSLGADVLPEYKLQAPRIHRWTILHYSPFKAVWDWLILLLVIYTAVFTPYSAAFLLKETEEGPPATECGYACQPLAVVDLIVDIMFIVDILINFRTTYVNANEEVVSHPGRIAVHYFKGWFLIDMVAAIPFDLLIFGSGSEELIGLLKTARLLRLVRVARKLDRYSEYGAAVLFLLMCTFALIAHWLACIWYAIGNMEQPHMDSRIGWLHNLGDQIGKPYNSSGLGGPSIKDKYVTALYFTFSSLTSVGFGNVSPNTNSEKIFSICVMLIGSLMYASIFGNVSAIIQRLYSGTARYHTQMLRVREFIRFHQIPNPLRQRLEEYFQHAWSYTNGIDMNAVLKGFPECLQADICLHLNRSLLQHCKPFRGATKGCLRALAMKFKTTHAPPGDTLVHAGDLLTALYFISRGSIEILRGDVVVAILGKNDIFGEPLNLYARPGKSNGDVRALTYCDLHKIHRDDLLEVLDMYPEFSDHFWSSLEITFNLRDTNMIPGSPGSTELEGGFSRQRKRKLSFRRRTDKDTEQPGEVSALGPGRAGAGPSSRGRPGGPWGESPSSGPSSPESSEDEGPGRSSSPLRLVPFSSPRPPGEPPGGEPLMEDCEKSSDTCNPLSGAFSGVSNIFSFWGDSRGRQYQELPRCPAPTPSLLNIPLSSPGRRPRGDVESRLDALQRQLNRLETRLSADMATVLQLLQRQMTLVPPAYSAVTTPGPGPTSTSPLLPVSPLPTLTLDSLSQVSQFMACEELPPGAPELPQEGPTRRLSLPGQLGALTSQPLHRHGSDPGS
From the text: The activity of compounds according to formula I against the hERG-encoded potassium channel can be determined according to Kiss L, et al. Assay Drug Dev Technol. 1 (2003), 127-35: “High throughput ion-channel pharmacology: planar-array-based voltage clamp”.

CYP3A4 = CYP3A4 (Homo sapiens, UniProt P08684); assay: CYP3A4 inhibition assay (Bapiro et al.); type: in vitro ADME
Sequence of CYP3A4 (P08684 whole entry): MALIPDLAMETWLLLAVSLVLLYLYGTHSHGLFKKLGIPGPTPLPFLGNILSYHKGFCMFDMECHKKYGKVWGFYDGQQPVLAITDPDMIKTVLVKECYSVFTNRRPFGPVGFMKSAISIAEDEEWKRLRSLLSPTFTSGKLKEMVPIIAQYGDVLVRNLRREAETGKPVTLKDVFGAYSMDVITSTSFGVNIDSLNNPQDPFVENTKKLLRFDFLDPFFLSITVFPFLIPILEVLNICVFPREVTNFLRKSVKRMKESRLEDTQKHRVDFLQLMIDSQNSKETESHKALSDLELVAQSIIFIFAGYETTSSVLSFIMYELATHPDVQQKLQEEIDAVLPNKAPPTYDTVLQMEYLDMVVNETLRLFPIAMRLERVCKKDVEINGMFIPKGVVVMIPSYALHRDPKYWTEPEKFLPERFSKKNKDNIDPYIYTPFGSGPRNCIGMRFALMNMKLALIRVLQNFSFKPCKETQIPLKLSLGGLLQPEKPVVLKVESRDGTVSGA
From the text: It is well known that severe problems such as toxicity may occur if plasma levels of one medication are altered by the co-administration of another drug. […] CYP (cytochrome P450) 3A4 is the most important enzyme in the human liver as a majority of oxidised drugs have been biotransformed by this enzyme. Accordingly, it is undesirable to employ a medication having a significant degree of such liver enzyme inhibiting properties. […] Thus, there is a need for a novel NK receptor antagonist with improved pharmacokinetic properties. The present invention provides compounds with CYP3A4 enzyme inhibiting properties at a low level, as comparatively high IC50 values are obtained in a CYP3A4 inhibiting assay. Said method for determining CYP3A4 inhibition is described in Bapiro et al; Drug Metab. Dispos. 29, 30-35 (2001).
The IC50 values tested according to Bapiro et al; Drug Metab. Dispos. 29, 30-35 (2001) were generally greater than 15 μM.

[3] = Metabolic stability in liver microsomes (intrinsic clearance); type: in vitro ADME; settings: human, pH 7.4, HLM
Experimental: The rate of biotransformation can be measured as either metabolite(s) formation or the rate of disappearance of the parent compound. The experimental design involves incubation of low concentrations of substrate (usually 1.0 μM) with liver microsomes (usually 0.5 mg/ml) and taking out aliquotes at varying time points (usually 0, 5, 10, 15, 20, 30, 40 min.). The test compound is usually dissolved in DMSO. The DMSO concentration in the incubation mixture is usually 0.1% or less since more solvent can drastically reduce the activities of some CYP450s. Incubations are done in 100 mM potassium phosphate buffer, pH 7.4 and at 37° C. Acetonitrile or methanol is used to stop the reaction. The parent compound is analysed by HPLC-MS. From the calculated half-life, t1/2, the intrinsic clearance, Clint, is estimated by taking microsomal protein concentration and liver weight into account.

Structure (SMILES)	functional NK2 receptor antagonistic properties [1]	Kb (human NK1 receptor)	Kb (human NK2 receptor)	Kb (human NK3 receptor)	IC50 [2]	IC50 (CYP3A4)	microsomal CLint at 1 μM [3]
CN(CC(CCN1CC(N2CCOCC2)C1)c1ccc(Cl)c(Cl)c1)C(=O)c1ccccc1 (stereo not shown) [N-[2-(3,4-dichlorophenyl)-4-(3-morpholin-4-ylazetidin-1-yl)butyl]-N-methylbenzamide]	possess functional NK2 receptor antagonistic properties	–	–	–	–	–	–
CN(C[C@@H](CCN1CC(N2CCN3C(=O)CC[C@@H]3C2)C1)c1ccc(F)cc1)C(=O)c1cc(Br)cc(C(F)(F)F)c1 [Ex 1, 3-Bromo-N-((2S)-2-(4-fluorophenyl)-4-{3-[(8aR)-6-oxohexahydropyrrolo[1,2-a]pyrazin-2(1H)-yl]azetidin-1-yl}butyl)-N-methyl-5-(trifluoromethyl)benzamide dihydrochloride]	–	2 nM	15.8 nM	3.16 nM	12400 nM	> 50000 nM	14 µL/min/mg
